Reference: US20260028321A1, “1,3,4-OXADIAZOLE DERIVATIVE COMPOUNDS AS HISTONE DEACETYLASE 6 INHIBITOR, AND USES THEREOF” (CHONG KUN DANG PHARMACEUTICAL CORP., priority 2022, published 2026)
pIC50: −log10 of the molar value.

Key:
HDAC6 human recombinant = HDAC6 human recombinant (Homo sapiens (Human), UniProt Q9UBN7); assay: HDAC6 enzyme activity inhibition assay (fluorimetric); type: biochemical; settings: test substance 0.1-1000 nM; 37° C. 60 minutes, developer 30 minutes; fluorescence Ex 390, Em 460
Experimental: (§1) The HDAC enzyme inhibition ability of the test substance was measured using the HDAC1 Fluorimetric Drug Discovery Assay Kit (Enzo life sciences: BML-AK511) and the HDAC6 human recombinant (Calbiochem: 382180). In the HDAC1 assay, the test substance was treated at concentrations of 100, 1000, and 10000 nM, and in the HDAC6 assay, the test substance was treated at concentrations of 0.1, 1, 10, 100, and 1000 nM. After sample treatment, the samples were reacted at 37° C. for 60 minutes, followed by reaction at 37° C. for 30 minutes by treatment with a developer, and fluorescence intensities (Ex 390, Em 460) thereof were measured using FlexStatin3 (Molecular device).

HDAC1 = HDAC1 (Homo sapiens (Human), UniProt Q13547); assay: HDAC1 enzyme activity inhibition assay (HDAC1 Fluorimetric Drug Discovery Assay Kit); type: biochemical; settings: test substance 100, 1000, 10000 nM; 37° C. 60 minutes, developer 30 minutes; fluorescence Ex 390, Em 460
Experimental: as §1

Sequence of HDAC6 human recombinant (Q9UBN7 whole entry): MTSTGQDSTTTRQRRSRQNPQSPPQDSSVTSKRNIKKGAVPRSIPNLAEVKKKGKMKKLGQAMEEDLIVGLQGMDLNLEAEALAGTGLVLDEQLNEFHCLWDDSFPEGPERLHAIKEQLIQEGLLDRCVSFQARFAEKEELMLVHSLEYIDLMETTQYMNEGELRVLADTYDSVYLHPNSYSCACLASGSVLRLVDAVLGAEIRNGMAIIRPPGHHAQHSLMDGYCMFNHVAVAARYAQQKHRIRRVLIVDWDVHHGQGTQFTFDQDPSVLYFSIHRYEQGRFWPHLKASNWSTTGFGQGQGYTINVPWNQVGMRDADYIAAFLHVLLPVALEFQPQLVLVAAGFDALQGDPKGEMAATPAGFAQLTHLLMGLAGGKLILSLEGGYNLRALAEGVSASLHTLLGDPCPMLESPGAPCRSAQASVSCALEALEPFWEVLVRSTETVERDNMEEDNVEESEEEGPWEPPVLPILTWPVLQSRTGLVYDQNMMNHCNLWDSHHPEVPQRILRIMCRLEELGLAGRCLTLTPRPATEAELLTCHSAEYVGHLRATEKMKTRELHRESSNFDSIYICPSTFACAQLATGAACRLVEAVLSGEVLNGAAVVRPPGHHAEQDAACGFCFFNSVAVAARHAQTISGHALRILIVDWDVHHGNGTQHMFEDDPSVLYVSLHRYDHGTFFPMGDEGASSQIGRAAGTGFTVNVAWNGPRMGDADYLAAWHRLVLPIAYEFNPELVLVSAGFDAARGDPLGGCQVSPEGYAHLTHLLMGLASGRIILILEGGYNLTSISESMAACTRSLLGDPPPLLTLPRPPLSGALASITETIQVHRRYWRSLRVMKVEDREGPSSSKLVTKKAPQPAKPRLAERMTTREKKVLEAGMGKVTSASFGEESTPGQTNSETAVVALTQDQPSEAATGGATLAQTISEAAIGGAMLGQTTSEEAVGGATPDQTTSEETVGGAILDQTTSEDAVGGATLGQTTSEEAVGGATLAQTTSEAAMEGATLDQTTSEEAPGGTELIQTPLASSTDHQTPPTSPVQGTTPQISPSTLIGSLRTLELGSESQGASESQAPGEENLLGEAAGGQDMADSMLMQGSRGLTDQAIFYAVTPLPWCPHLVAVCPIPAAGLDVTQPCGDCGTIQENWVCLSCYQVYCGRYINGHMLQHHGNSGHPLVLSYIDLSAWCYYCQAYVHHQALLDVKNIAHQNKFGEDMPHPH
Sequence of HDAC1 (Q13547 whole entry): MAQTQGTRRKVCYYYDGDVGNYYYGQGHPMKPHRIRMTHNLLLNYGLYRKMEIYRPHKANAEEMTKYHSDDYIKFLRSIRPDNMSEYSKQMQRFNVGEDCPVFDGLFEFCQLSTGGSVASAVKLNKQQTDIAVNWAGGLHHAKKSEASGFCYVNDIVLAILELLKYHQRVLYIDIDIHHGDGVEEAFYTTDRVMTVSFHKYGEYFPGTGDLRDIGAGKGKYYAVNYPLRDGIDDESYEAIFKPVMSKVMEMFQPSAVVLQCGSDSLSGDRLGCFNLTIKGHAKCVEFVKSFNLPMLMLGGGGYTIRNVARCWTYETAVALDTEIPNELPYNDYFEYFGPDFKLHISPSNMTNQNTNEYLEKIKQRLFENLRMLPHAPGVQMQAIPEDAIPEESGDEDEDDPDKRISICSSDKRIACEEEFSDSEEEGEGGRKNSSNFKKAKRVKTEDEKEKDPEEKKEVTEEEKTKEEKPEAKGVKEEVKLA

pIC50 (HDAC6 human recombinant) | pIC50 (HDAC1) | SMILES
7.66 | < 5.00 | CN1CCN(c2c(N(Cc3ccc(-c4nnc(C(F)F)o4)cc3F)c3ccccc3)c(=O)c2=O)CC1 [Compound 1, 3-((4-(5-(difluoromethyl)-1,3,4-oxadiazol-2-yl)-2-fluorobenzyl)(phenyl)amino)-4-(4-methylpiperazin-1-yl)cyclobut-3-ene-1,2-dione]
 | < 5.00 | O=c1c(N2CCOCC2)c(N(Cc2ccc(-c3nnc(C(F)F)o3)cc2F)c2ccccc2)c1=O [Compound 2, 3-((4-(5-(difluoromethyl)-1,3,4-oxadiazol-2-yl)-2-fluorobenzyl)(phenyl)amino)-4-morpholinocyclobut-3-ene-1,2-dione]
7.57 | < 5.00 | O=c1c(N2CCS(=O)(=O)CC2)c(N(Cc2ccc(-c3nnc(C(F)F)o3)cc2F)c2ccccc2)c1=O [Compound 3, 3-((4-(5-(difluoromethyl)-1,3,4-oxadiazol-2-yl)-2-fluorobenzyl)(phenyl)amino)-4-(1,1-dioxidothiomorpholino)cyclobut-3-ene-1,2-dione]
7.51 | < 5.00 | CN1CCN(c2c(N(Cc3ccc(-c4nnc(C(F)F)o4)cc3)c3ccccc3)c(=O)c2=O)CC1 [Compound 4, 3-((4-(5-(difluoromethyl)-1,3,4-oxadiazol-2-yl)benzyl)(phenyl)amino)-4-(4-methylpiperazin-1-yl)cyclobut-3-ene-1,2-dione]
7.54 | < 5.00 | O=c1c(N2CCS(=O)(=O)CC2)c(N(Cc2ccc(-c3nnc(C(F)F)o3)cc2)c2ccccc2)c1=O [Compound 5, 3-((4-(5-(difluoromethyl)-1,3,4-oxadiazol-2-yl)benzyl)(phenyl)amino)-4-(1,1-dioxidothiomorpholino)cyclobut-3-ene-1,2-dione]
 | < 5.00 | O=c1c(N2CCS(=O)(=O)CC2)c(N(Cc2ncc(-c3nnc(C(F)F)o3)cc2F)c2ccccc2)c1=O [Compound 6, 3-(((5-(5-(difluoromethyl)-1,3,4-oxadiazol-2-yl)-3-fluoropyridin-2-yl)methyl)(phenyl)amino)-4-(1,1-dioxidothiomorpholino)cyclobut-3-ene-1,2-dione]
7.44 | < 5.00 | CN1CCN(c2c(N(Cc3ccc(-c4nnc(C(F)F)o4)cc3F)c3cc(F)cc(Br)c3)c(=O)c2=O)CC1 [Compound 7, 3-((3-bromo-5-fluorophenyl)(4-(5-(difluoromethyl)-1,3,4-oxadiazol-2-yl)-2-fluorobenzyl)amino)-4-(4-methylpiperazin-1-yl)cyclobut-3-ene-1,2-dione]
7.46 | < 5.00 | CN1CCN(c2c(N(Cc3ccc(-c4nnc(C(F)F)o4)cc3F)c3cc(F)cc(-c4cccnc4)c3)c(=O)c2=O)CC1 [Compound 8, 3-((4-(5-(difluoromethyl)-1,3,4-oxadiazol-2-yl)-2-fluorobenzyl)(3-fluoro-5-(pyridin-3-yl)phenyl)amino)-4-(4-methylpiperazin-1-yl)cyclobut-3-ene-1,2-dione]
7.25 | < 5.00 | O=c1c(N2CC3(C2)CN(C2COC2)C3)c(N(Cc2ccc(-c3nnc(C(F)F)o3)cc2F)c2ccccc2)c1=O [Compound 10, 3-((4-(5-(difluoromethyl)-1,3,4-oxadiazol-2-yl)-2-fluorobenzyl)(phenyl)amino)-4-(6-(oxetan-3-yl)-2,6-diazaspiro[3.3]heptan-2-yl)cyclobut-3-ene-1,2-dione]
7.22 | < 5.00 | CN1CC2(C1)CN(c1c(N(Cc3ccc(-c4nnc(C(F)F)o4)cc3)c3ccccc3)c(=O)c1=O)C2 [Compound 11, 3-((4-(5-(difluoromethyl)-1,3,4-oxadiazol-2-yl)benzyl)(phenyl)amino)-4-(6-methyl-2,6-diazaspyro[3.3]heptan-2-yl)cyclobut-3-ene-1,2-dione]
7.52 | < 5.00 | CN1CCN(c2c(N(Cc3ccc(-c4nnc(C(F)F)o4)cc3F)c3cccc(Br)c3)c(=O)c2=O)CC1 [Compound 12, 3-((3-bromophenyl)(4-(5-(difluoromethyl)-1,3,4-oxadiazol-2-yl)-2-fluorobenzyl)amino)-4-(4-methylpiperazin-1-yl)cyclobut-3-ene-1,2-dione]
7.62 | < 5.00 | O=c1c(N(Cc2ccc(-c3nnc(C(F)F)o3)cc2F)c2ccccc2)c(N2C[C@@H]3C[C@H]2CN3C2COC2)c1=O [Compound 13, 3-((4-(5-(difluoromethyl)-1,3,4-oxadiazol-2-yl)-2-fluorobenzyl)(phenyl)amino)-4-((1S,4S)-5-(oxetan-3-yl)-2,5-diazabicyclo[2.2.1]heptan-2-yl)cyclobut-3-ene-1,2-dione]
 | < 5.00 | CN1C[C@@H]2C[C@H]1CN2c1c(N(Cc2ccc(-c3nnc(C(F)F)o3)cc2F)c2ccccc2)c(=O)c1=O [Compound 14, 3-((4-(5-(difluoromethyl)-1,3,4-oxadiazol-2-yl)-2-fluorobenzyl)(phenyl)amino)-4-((1S,4S)-5-methyl-2,5-diazabicyclo[2.2.1]heptan-2-yl)cyclobut-3-ene-1,2-dione]
7.66 | < 5.00 | CN1C[C@@H]2C[C@H]1CN2c1c(N(Cc2ccc(-c3nnc(C(F)F)o3)cn2)c2ccccc2)c(=O)c1=O [Compound 15, 3-(((5-(5-(difluoromethyl)-1,3,4-oxadiazol-2-yl)pyridin-2-yl)methyl)(phenyl)amino)-4-((1S,4S)-5-methyl-2,5-diazabicyclo[2.2.1]heptan-2-yl)cyclobut-3-ene-1,2-dione]
7.55 | < 5.00 | CC(C)N1C[C@@H]2C[C@H]1CN2c1c(N(Cc2ccc(-c3nnc(C(F)F)o3)cn2)c2ccccc2)c(=O)c1=O [Compound 16, 3-(((5-(5-(difluoromethyl)-1,3,4-oxadiazol-2-yl)pyridin-2-yl)methyl)(phenyl)amino)-4-((1S,4S)-5-isopropyl-2,5-diazabicyclo[2.2.1]heptan-2-yl)cyclobut-3-ene-1,2-dione]
7.37 | < 5.00 | O=c1c(N(Cc2ccc(-c3nnc(C(F)F)o3)cn2)c2ccccc2)c(N2C[C@@H]3C[C@H]2CN3C2COC2)c1=O [Compound 17, 3-(((5-(5-(difluoromethyl)-1,3,4-oxadiazol-2-yl)pyridin-2-yl)methyl)(phenyl)amino)-4-((1S,4S)-5-(oxetan-3-yl)-2,5-diazabicyclo[2.2.1]heptan-2-yl)cyclobut-3-ene-1,2-dione]
7.29 | < 5.00 | CN1CCN(c2c(N(Cc3ccc(-c4nnc(C(F)F)o4)cn3)c3cccc(-c4cccnc4)c3)c(=O)c2=O)CC1 [Compound 18, 3-(((5-(5-(difluoromethyl)-1,3,4-oxadiazol-2-yl)pyridin-2-yl)methyl)(3-(pyridin-3-yl)phenyl)amino)-4-(4-methylpiperazin-1-yl)cyclobut-3-ene-1,2-dione]
6.99 | < 5.00 | CN1CCN(c2c(N(Cc3ccc(-c4nnc(C(F)F)o4)cn3)c3cccc(-c4ccncc4)c3)c(=O)c2=O)CC1 [Compound 19, 3-(((5-(5-(difluoromethyl)-1,3,4-oxadiazol-2-yl)pyridin-2-yl)methyl)(3-(pyridin-4-y 1)phenyl)amino)-4-(4-methylpiperazin-1-yl)cyclobut-3-ene-1,2-dione]
 | < 5.00 | CN1C[C@@H]2C[C@H]1CN2c1c(N(Cc2ncc(-c3nnc(C(F)F)o3)cc2F)c2ccccc2)c(=O)c1=O [Compound 20, 3-(((5-(5-(difluoromethyl)-1,3,4-oxadiazol-2-yl)-3-fluoropyridin-2-yl)methyl)(phenyl)amino)-4-((1S,4S)-5-methyl-2,5-diazabicyclo[2.2.1]heptan-2-yl)cyclobut-3-ene-1,2-dione]
 | < 5.00 | O=c1c(N(Cc2ncc(-c3nnc(C(F)F)o3)cc2F)c2ccccc2)c(N2C[C@@H]3C[C@H]2CN3C2COC2)c1=O [Compound 21, 3-(((5-(5-(difluoromethyl)-1,3,4-oxadiazol-2-yl)-3-fluoropyridin-2-yl)methyl)(phenyl)amino)-4-((1S,4S)-5-(oxetan-3-yl)-2,5-diazabicyclo[2.2.1]heptan-2-yl)cyclobut-3-ene-1,2-dione]
7.19 | < 5.00 | CN1CCN(c2c(N(Cc3ccc(-c4nnc(C(F)F)o4)cc3F)c3ccc(F)c(F)c3)c(=O)c2=O)CC1 [Compound 22, 3-((4-(5-(difluoromethyl)-1,3,4-oxadiazol-2-yl)-2-fluorobenzyl)(3,4-difluorophenyl)amino)-4-(4-methylpiperazin-1-yl)cyclobut-3-ene-1,2-dione]
7.30 | < 5.00 | O=c1c(N2CCN(C3COC3)CC2)c(N(Cc2ccc(-c3nnc(C(F)F)o3)cc2F)c2ccc(F)c(F)c2)c1=O [Compound 23, 3-((4-(5-(difluoromethyl)-1,3,4-oxadiazol-2-yl)-2-fluorobenzyl)(3,4-difluorophenyl)amino)-4-(4-(oxetan-3-yl)piperazin-1-yl)cyclobut-3-ene-1,2-dione]
6.79 | < 5.00 | O=c1c(N2CCOCC2)c(N(Cc2ccc(-c3nnc(C(F)(F)F)o3)cc2)c2ccccc2)c1=O [Compound 24, 3-morpholino-4-[N-[[4-[5-(trifluoromethyl)-1,3,4-oxadiazol-2-yl]phenyl]methyl]anilino]cyclobut-3-ene-1,2-dione]
